{"source": "BindingDB's records for doi:10.1002/(SICI)1098-2396(200002)35:2<79::AID-SYN1>3.0.CO;2-X", "about": "(Institut De Recherches Servier, 2000)", "key": {"[1]": {"target": "D(3) dopamine receptor (Homo sapiens, UniProt P35462)", "sequence (P35462 as listed by the source)": "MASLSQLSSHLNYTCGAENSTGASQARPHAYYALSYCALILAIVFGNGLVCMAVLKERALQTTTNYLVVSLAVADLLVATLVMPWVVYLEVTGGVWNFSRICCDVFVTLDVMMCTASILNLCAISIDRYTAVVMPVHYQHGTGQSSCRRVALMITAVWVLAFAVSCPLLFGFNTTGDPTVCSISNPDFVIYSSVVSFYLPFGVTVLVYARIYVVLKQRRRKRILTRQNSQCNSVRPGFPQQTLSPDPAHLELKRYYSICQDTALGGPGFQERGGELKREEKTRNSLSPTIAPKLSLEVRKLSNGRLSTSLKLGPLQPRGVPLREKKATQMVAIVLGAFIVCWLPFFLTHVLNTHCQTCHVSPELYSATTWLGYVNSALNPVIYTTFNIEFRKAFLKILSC"}, "[2]": {"target": "T1, 5-hydroxytryptamine receptor 1A (Homo sapiens, UniProt P08908)", "T1 sequence (P08908 whole entry)": "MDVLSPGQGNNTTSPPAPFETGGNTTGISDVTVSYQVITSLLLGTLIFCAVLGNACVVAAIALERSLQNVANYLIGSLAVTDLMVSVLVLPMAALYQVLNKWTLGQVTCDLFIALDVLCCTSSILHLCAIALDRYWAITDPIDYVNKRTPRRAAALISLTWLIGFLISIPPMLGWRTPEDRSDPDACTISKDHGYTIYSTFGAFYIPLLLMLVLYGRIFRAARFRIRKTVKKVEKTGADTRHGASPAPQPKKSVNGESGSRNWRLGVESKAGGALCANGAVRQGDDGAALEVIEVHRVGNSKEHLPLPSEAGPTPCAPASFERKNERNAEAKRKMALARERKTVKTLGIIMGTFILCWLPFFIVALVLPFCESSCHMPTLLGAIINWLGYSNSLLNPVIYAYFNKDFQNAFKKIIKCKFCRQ"}, "[3]": {"target": "T2, Alpha-2A adrenergic receptor [16-465] (Rattus norvegicus, UniProt P22909)", "T2 construct": "16-465", "T2 sequence (P22909 whole entry)": "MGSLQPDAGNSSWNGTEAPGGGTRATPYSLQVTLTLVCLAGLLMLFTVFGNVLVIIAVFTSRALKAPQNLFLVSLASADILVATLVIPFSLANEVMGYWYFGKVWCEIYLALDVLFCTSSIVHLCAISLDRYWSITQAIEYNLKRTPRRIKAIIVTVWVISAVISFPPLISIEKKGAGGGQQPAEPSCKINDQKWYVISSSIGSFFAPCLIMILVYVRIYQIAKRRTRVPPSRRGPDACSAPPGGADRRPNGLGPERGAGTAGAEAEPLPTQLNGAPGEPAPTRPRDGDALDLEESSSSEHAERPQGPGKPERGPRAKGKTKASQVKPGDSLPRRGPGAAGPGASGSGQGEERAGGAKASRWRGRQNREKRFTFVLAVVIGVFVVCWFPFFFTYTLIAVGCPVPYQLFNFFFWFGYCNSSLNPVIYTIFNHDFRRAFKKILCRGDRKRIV"}, "[4]": {"target": "D(2) dopamine receptor (Homo sapiens, UniProt P14416)", "sequence (P14416 whole entry)": "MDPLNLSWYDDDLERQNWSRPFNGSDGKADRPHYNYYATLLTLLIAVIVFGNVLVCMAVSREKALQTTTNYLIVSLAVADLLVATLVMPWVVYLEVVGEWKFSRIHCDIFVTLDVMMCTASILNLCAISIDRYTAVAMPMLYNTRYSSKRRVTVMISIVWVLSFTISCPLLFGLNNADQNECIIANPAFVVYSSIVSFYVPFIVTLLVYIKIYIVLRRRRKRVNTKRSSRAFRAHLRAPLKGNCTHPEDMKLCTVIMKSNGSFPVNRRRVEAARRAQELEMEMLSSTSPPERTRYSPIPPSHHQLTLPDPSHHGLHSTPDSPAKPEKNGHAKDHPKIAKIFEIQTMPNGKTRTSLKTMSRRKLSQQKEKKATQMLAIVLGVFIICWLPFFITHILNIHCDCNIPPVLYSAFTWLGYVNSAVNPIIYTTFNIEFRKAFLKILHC"}, "[5]": {"target": "T3, Alpha-1A adrenergic receptor (Homo sapiens, UniProt P35348)", "T3 sequence (P35348 whole entry)": "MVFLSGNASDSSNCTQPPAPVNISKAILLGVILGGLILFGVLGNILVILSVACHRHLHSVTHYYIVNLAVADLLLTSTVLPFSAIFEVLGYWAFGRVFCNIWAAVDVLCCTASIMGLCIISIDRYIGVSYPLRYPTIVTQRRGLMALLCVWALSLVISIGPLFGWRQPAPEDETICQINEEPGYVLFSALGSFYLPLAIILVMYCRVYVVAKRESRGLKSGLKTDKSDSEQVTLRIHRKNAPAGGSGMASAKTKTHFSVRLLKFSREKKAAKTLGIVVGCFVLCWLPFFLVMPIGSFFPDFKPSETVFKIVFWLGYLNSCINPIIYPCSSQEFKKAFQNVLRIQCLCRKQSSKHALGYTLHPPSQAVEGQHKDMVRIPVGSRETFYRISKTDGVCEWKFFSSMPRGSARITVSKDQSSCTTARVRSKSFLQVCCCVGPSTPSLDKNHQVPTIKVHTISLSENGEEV"}, "[6]": {"target": "T4, Alpha-1B adrenergic receptor (Homo sapiens, UniProt P35368)", "T4 sequence (P35368 whole entry)": "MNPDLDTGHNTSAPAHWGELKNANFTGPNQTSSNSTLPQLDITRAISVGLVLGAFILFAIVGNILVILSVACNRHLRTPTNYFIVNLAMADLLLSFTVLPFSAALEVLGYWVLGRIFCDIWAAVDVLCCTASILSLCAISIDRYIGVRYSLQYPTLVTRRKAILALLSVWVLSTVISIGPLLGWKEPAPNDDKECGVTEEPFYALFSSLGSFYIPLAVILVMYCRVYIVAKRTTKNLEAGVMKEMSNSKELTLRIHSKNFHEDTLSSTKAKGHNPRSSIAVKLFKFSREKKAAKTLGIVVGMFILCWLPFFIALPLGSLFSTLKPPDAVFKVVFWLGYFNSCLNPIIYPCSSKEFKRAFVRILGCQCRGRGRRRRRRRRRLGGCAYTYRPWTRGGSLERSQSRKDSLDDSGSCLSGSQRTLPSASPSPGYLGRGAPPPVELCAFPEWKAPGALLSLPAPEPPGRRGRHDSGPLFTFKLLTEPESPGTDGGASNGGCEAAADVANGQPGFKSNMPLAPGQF"}, "[7]": {"target": "T5, Alpha-1D adrenergic receptor (Homo sapiens, UniProt P25100)", "T5 sequence (P25100 whole entry)": "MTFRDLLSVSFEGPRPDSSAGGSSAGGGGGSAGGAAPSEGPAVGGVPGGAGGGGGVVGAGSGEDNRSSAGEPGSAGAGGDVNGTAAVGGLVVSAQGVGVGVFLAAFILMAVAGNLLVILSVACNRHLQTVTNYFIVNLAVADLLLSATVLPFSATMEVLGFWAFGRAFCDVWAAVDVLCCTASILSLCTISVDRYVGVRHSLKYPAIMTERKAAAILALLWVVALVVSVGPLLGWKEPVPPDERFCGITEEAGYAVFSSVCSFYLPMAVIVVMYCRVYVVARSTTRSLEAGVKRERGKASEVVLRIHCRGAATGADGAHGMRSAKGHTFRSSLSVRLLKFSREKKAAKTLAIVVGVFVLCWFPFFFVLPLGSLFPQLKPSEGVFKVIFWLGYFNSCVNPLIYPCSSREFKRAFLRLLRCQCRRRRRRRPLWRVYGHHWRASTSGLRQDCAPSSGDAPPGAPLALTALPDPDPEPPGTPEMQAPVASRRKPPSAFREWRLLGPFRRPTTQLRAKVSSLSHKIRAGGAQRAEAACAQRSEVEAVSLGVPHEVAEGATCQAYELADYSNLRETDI"}}, "note": "pKi: −log10 of the molar value.", "data": [{"smiles": "Fc1cccc2c1OC1CNCC1O2", "note": "(configuration not stated) [CAS_105182-45-4]", "values": [{"measurement": "pKi", "setting": "[1]", "value": 6.00}, {"measurement": "pKi", "setting": "[2]", "value": 6.80}, {"measurement": "pKi", "setting": "[3]", "value": 8.90}, {"measurement": "pKi", "setting": "[4]", "value": 6.00}, {"measurement": "pKi", "setting": "[5]", "value": 6.30}, {"measurement": "pKi", "setting": "[6]", "value": 6.00}, {"measurement": "pKi", "setting": "[7]", "value": 6.90}]}]}
